Each structure is given as a SMILES string. A value given as a limit tells only on which side of the number the result lay.

The record followed here is US20230339952A1, “MACROCYCLIC HETEROCYCLES AND USES THEREOF” (Kumquat Biosciences Inc., priority 2022, published 2023).

Assay [1] has as its system NCI-H1975 (ATCC CRL-5908) cell line comprising an EGFR T790M L858R double mutation. In words: EGFR-SOS cellular inhibition assay (CellTiter-Glo cell proliferation). Type of assay: cell-based. To be noted: Homo sapiens, 120 h; NCI-H1975 cell proliferation, approximately 5 days; read-out: H1975 IC50.
Procedure: A CellTiter-Glo (CTG) luminescent based assay (Promega) is used to assess growth of the cells, as a measurement of the ability of the compounds herein to inhibit EGFR signaling in the cells. […] The day after plating, cells are treated with a dilution series (e.g., a 9 point 3-fold dilution series) of the compounds herein (e.g., approximately 125 μL final volume per well).
A further assay has as its target SOS1 (Homo sapiens (Human), UniProt Q07889). In words: Ras-SOS interaction assay (HTRF), K-Ras G13D utilized. Type of assay: binding. To be noted: K-Ras G13D, read-out: SOS1 IC50. The text has this: For example, the equilibrium interaction of human SOS1 (hSOS1) with human wildtype Kras or K-Ras mutant (e.g., hK-Ras G12C mutant, or hK-Ras G12C) can be assessed as a proxy or an indication for a subject compound's ability to inhibit SOS. Detection of such interaction is achieved by measuring homogenous time-resolved fluorescence resonance energy transfer (HTRF) from (i) a fluorescence resonance energy transfer (FRET) donor (e.g., antiGST-Europium) that is bound to GST-tagged K-Ras G12C to (ii) a FRET acceptor (e.g., anti-6His-XL665) bound to a His-tagged hSOS1.
A Ras working solution is prepared in assay buffer containing typically 10 nM of the protein construct (e.g., GST-tagged hK-Ras G12C) and 2 nM of the FRET donor (e.g., antiGST-Eu(K) from Cisbio, France). A SOS1 working solution is prepared in assay buffer containing typically 10 nM of the protein construct (e.g., His-hSOS1) and 10 nM of the FRET acceptor (e.g., anti-6His-XL665 from Cisbio, France). An inhibitor control solution is prepared in assay buffer containing 10 nM of the FRET acceptor without the SOS1 protein.
A fixed reaction mixture with or without test compound is transferred into a 384-well plate. Ras working solution is added to all wells of the test plate. SOS1 working solution is added to all wells except for those that are subsequently filled with the inhibitor control solution. […] The ratiometric data (i.e., emission 2 divided by emission 1) is used to calculate IC50 values against SOS1 using GraphPad Prism (GraphPad software).
(In general: TR-FRET usually uses a lanthanide donor and a delayed reading to cut background.)

SOS1, sequence (Q07889 564-1049): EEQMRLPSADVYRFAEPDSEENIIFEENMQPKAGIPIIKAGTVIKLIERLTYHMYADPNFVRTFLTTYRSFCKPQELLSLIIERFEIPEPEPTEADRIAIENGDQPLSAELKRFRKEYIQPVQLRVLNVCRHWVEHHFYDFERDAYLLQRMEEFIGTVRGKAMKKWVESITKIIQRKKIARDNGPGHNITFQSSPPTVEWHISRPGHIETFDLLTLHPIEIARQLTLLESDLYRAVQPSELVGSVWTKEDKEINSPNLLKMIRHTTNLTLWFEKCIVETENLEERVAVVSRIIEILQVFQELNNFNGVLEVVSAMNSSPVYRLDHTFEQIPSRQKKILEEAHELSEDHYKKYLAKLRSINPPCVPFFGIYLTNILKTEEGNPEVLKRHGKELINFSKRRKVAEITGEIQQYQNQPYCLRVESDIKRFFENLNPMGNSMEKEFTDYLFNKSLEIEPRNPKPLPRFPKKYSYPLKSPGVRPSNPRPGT

For `Cc1nc2c3cc(C4(C#N)CC4)c(=O)n(c3n1)CC/C=C\COCC(F)(F)c1cccc(c1F)[C@@H](C)N2` [Compound 3, 1-((3R,Z)-4^2,5,5-trifluoro-1^2,3-dimethyl-1^7-oxo-1^7,1^8-dihydro-7-oxa-2-aza-1(4,8)-pyrido[2,3-d]pyrimidina-4(1,3)-benzenacyclododecaphan-9-en-1^6-yl)cyclopropane-1-carbonitrile], the IC50 (commonly the concentration needed to halve the response being measured) in assay [1] was in the range of 1 to 10 µM; at SOS1, 0.1 to 5 µM. For `C[C@H]1Nc2ncnc3c2cc(C2(C#N)CCS(=O)(=O)CC2)c(=O)n3CCCCCN2CCC(CC2)CCC(F)(F)c2cccc1c2` [Compound 8, 4-((3R)-5,5-difluoro-3-methyl-1^7-oxo-1^7,1^8-dihydro-2-aza-1(4,8)-pyrido[2,3-d]pyrimidina-8(4,1)-piperidina-4(1,3)-benzenacyclotridecaphane-1^6-yl)tetrahydro-2H-thiopyran-4-carbonitrile 1,1-dioxide], the half-inhibitory concentration (IC50) in assay [1] was < 1 µM; on SOS1, < 0.1 µM.

For the molecule `C[C@H]1Nc2ncnc3c2cc(C2(C#N)CC2)c(=O)n3CCCNC(=O)CCN2CCC(CC2)C(F)(F)c2cccc1c2F` [Compound 11, 1-((4R)-3^2,2,2-trifluoro-4-methyl-6^7,11-dioxo-6^7,6^8-dihydro-5,10-diaza-6(4,8)-pyrido[2,3-d]pyrimidina-1(4,1)-piperidina-3(1,3)-benzenacyclotridecaphane-6^6-yl)cyclopropane-1-carbonitrile], the figures for the IC50 (in assay [1]; on SOS1) were < 1 µM and < 0.1 µM, respectively. For the molecule `Cc1nc2c3cc(C4CCS(=O)(=O)CC4)c(=O)n(c3n1)CCCC/C=C\CC(C)(O)C(F)(F)c1cccc(c1)[C@@H](C)N2` (stereo partly drawn) [Compound 12, (3R,Z)-1^6-(1,1-dioxidotetrahydro-2H-thiopyran-4-yl)-5,5-difluoro-6-hydroxy-1^2,3,6-trimethyl-1^7,1^8-dihydro-2-aza-1(4,8)-pyrido[2,3-d]pyrimidina-4(1,3)-benzenacyclotridecaphan-8-en-1^7-one], the IC50 in assay [1] is < 1 µM; on SOS1 it was 0.1 to 5 µM. For the molecule `C[C@H]1Nc2ncnc3c2cc(C2(C#N)CC2)c(=O)n3CCCCCCN2CCC(CC2)CC(F)(F)c2cccc1c2F` [Compound 15, 1-((3R)-4^2,5,5-trifluoro-3-methyl-1^7-oxo-1^7,1^8-dihydro-2-aza-1(4,8)-pyrido[2,3-d]pyrimidina-7(4,1)-piperidina-4(1,3)-benzenacyclotridecaphane-1^6-yl)cyclopropane-1-carbonitrile], the results for the IC50 (in assay [1]; at SOS1) were < 1 µM and < 0.1 µM, respectively.

As for `CC(C)N1CCN(c2cc3c4ncnc3n(c2=O)CCCCCCN2CCC(CC2)CC(F)(F)c2cccc(c2F)[C@@H](C)N4)CC1` [Compound 16, (3R)-4^2,5,5-trifluoro-1^6-(4-isopropylpiperazin-1-yl)-3-methyl-1^7,1^8-dihydro-2-aza-1(4,8)-pyrido[2,3-d]pyrimidina-7(4,1)-piperidina-4(1,3)-benzenacyclotridecaphan-1^7-one], the half-maximal inhibitory concentration (IC50) was < 1 µM in assay [1] and < 0.1 µM at SOS1. `C[C@H]1Nc2ncnc3c2cc(N2CCN(C4CCOCC4)CC2)c(=O)n3CCCCCCCN2CCC(CC2)C(F)(F)c2cccc1c2F` [Compound 19, (4R)-3^2,2,2-trifluoro-4-methyl-6^6-(4-(tetrahydro-2H-pyran-4-yl)piperazin-1-yl)-6^7,68-dihydro-5-aza-6(4,8)-pyrido[2,3-d]pyrimidina-1(4,1)-piperidina-3(1,3)-benzenacyclotridecaphan-6^7-one]: the IC50 in assay [1] was < 1 µM; on SOS1 it was < 0.1 µM. For `CC1CCCCCn2c(=O)c(C3(C#N)CC3)cc3c(ncnc32)N[C@H](C)c2cccc(c2F)C(F)(F)C2CCN(CC2)C1` (stereo partly drawn) [Compound 20, 1-((4R)-3^2,2,2-trifluoro-4,12-dimethyl-6^7-oxo-6^7,6^8-dihydro-5-aza-6(4,8)-pyrido[2,3-d]pyrimidina-1(4,1)-piperidina-3(1,3)-benzenacyclotridecaphane-6^6-yl)cyclopropane-1-carbonitrile], the IC50 in assay [1] was < 1 µM; at SOS1, < 0.1 µM.

Consider `CC(C)N1CCN(c2cc3c4ncnc3n(c2=O)CCCCCCCN2CCC(CC2)C(F)(F)c2cccc(c2F)[C@@H](C)N4)CC1` [Compound 21, (4R)-3^2,2,2-trifluoro-6^6-(4-isopropylpiperazin-1-yl)-4-methyl-6^7,6^8-dihydro-5-aza-6(4,8)-pyrido[2,3-d]pyrimidina-1(4,1)-piperidina-3(1,3)-benzenacyclotridecaphan-6^7-one], for which the IC50 in assay [1] was < 1 µM; at SOS1 it was < 0.1 µM.

For `C[C@H]1Nc2ncnc3c2cc(C2(C#N)CCS(=O)(=O)CC2)c(=O)n3CCCCCCN2CCC(CC2)CC(F)(F)c2cccc1c2F` [Compound 23, 4-((3R)-4^2,5,5-trifluoro-3-methyl-1^7-oxo-1^7,1^8-dihydro-2-aza-1(4,8)-pyrido[2,3-d]pyrimidina-7(4,1)-piperidina-4(1,3)-benzenacyclotridecaphane-1^6-yl)tetrahydro-2H-thiopyran-4-carbonitrile 1,1-dioxide], the results for the IC50 (in assay [1]; on SOS1) were < 1 µM and < 0.1 µM, respectively. `CC1CC/C=C\CCn2c(=O)c(C3(C#N)CC3)cc3c(ncnc32)N[C@H](C)c2cccc(c2F)C(F)(F)C2CCN1CC2` (stereo partly drawn) [Compound 24, 1-((4R,Z)-3^2,2,2-trifluoro-4,13-dimethyl-6^7-oxo-6^7,6^8-dihydro-5-aza-6(4,8)-pyrido[2,3-d]pyrimidina-1(4,1)-piperidina-3(1,3)-benzenacyclotridecaphan-9-en-6^6-yl)cyclopropane-1-carbonitrile]: the IC50 in assay [1] is < 1 µM; on SOS1, < 0.1 µM. Consider `CC1CC/C=C\CCn2c(=O)c(C3(C#N)CC3)cc3c(ncnc32)N[C@H](C)c2cccc(c2)C(F)(F)C2CCN1CC2` (stereo partly drawn) [Compound 100, 1-((4R,Z)-2,2-difluoro-4,13-dimethyl-6^7-oxo-6^7,6^8-dihydro-5-aza-6(4,8)-pyrido[2,3-d]pyrimidina-1(4,1)-piperidina-3(1,3)-benzenacyclotridecaphan-9-en-6^6-yl)cyclopropane-1-carbonitrile], for which, in assay [1], the IC50 is < 1 µM. As for `Cc1nc2c3cc(C4(C#N)CC4)c(=O)n(c3n1)CCCCCCCC(C)(O)C(F)(F)c1cccc(c1)[C@@H](C)N2` (stereo partly drawn) [Compound 148, 1-((3R)-5,5-difluoro-6-hydroxy-1^2,3,6-trimethyl-1^7-oxo-1^7,1^8-dihydro-2-aza-1(4,8)-pyrido[2,3-d]pyrimidina-4(1,3)-benzenacyclotridecaphane-1^6-yl)cyclopropane-1-carbonitrile], on SOS1, the IC50 was 0.1 to 5 µM.

On to `COc1cc2nc(C)nc3c2cc1OCCCCOCCOCCOCCNCc1ccccc1C1=CC=C(S1)C(C)N3` (stereo not drawn) [Compound 150, 5^7-methoxy-5^2,3-dimethyl-6,11,14,17-tetraoxa-4,20-diaza-5(4,6)-quinazolina-2(2,5)-thiophena-1(1,2)-benzenacyclohenicosaphane], for which the IC50 on SOS1 is 0.1 to 5 µM. Consider `C[C@H]1Nc2ncnc3cc(c(N4CCS(=O)(=O)CC4)cc23)OCCCCOCCCN2CCC(CC2)C(F)(F)c2cccc1c2` [Compound 192, (R)-4-(2,2-difluoro-4-methyl-7,12-dioxa-5-aza-6(4,7)-quinazolina-1(4,1)-piperidina-3(1,3)-benzenacyclopentadecaphane-6^6-yl)thiomorpholine 1,1-dioxide], for which, at SOS1, the IC50 is < 0.1 µM. Take `C[C@H]1Nc2ncnc3c(cc(N4CCS(=O)(=O)CC4)cc23)OCCCCCCN2CCC(CC2)C(F)(F)c2cccc1c2` [Compound 193, (R)-4-(2,2-difluoro-4-methyl-7-oxa-5-aza-6(4,8)-quinazolina-1(4,1)-piperidina-3(1,3)-benzenacyclotridecaphane-6^6-yl)thiomorpholine 1,1-dioxide]: the IC50 at SOS1 is < 0.1 µM.

With `C[C@H]1Nc2ncnc3c2cc(C2CCS(=O)(=O)CC2)c(=O)n3CCCOCCCN2CCC(CC2)CC(F)(F)c2cccc1c2` [Compound 194, (3R)-1^6-(1,1-dioxidotetrahydro-2H-thiopyran-4-yl)-5,5-difluoro-3-methyl-1^7,1^8-dihydro-11-oxa-2-aza-1(4,8)-pyrido[2,3-d]pyrimidina-7(4,1)-piperidina-4(1,3)-benzenacyclotetradecaphan-1^7-one], the IC50 on SOS1 was < 0.1 µM.

As to `CC(C)N1CCN(c2cc3c4ncnc(c4c2)N[C@H](C)c2cccc(c2)C(F)(F)C2CCN(CCCCCCO3)CC2)CC1` [Compound 195, (R)-2,2-difluoro-6^6-(4-isopropylpiperazin-1-yl)-4-methyl-7-oxa-5-aza-6(4,8)-quinazolina-1(4,1)-piperidina-3(1,3)-benzenacyclotridecaphane], the IC50 at SOS1 was < 0.1 µM. For the molecule `Cc1nnc2c3cc(N4CCOCC4)cc(c13)OCCCCCCN1CCC(CC1)C(F)(F)c1cccc(c1)[C@@H](C)N2` [Compound 196, (R)-2,2-difluoro-6^4,4-dimethyl-6^7-morpholino-7-oxa-5-aza-6(1,5)-phthalazina-1(4,1)-piperidina-3(1,3)-benzenacyclotridecaphane], the half-maximal inhibitory concentration (IC50) on SOS1 was < 0.1 µM.
